Reference: PMC6826021 (Disease Models & Mechanisms, 2019)

Experiments:
[1] = test system: Ca2+ influx in Etx-treated MDCK cells; format: cell-based, canine
Etx = conditions: cited from earlier work
Etx-treated MDCK cells [2] = format: cell-based, canine
[3] = target: Etx monomer binding to MDCK cells (Clostridium perfringens, UniProt Q02307); format: cell-based
[4] = target: Etx pore formation in DPPC/cholesterol liposomes (Clostridium perfringens, UniProt Q02307); format: biochemical
[5] = test system: mitochondrial membrane potential in Etx-treated MDCK cells; format: cell-based, canine
C57BL/6 mice = conditions: mouse, in vivo
[6] = test system: Etx-challenged C57BL/6 mice; conditions: mouse, in vivo
Etx-treated MDCK cells [7] = format: cell-based, canine; remark: listed apart in the source
[8] = test system: HMGB1 translocation in Etx-treated MDCK cells; format: cell-based, canine
Etx-Etx monomers = Etx-Etx monomers (Clostridium perfringens, UniProt Q02307); format: binding
Chain of Etx-Etx monomers (Q02307 46-306 limits assumed): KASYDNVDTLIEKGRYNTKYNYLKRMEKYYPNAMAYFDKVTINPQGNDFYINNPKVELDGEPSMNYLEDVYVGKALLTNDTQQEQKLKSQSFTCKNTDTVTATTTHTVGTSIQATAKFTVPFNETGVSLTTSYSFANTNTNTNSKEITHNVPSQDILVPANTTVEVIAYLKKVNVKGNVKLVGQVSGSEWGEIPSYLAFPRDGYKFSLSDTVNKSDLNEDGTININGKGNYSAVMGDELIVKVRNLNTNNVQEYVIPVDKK

[9] = test system: ROS in Etx-treated MDCK cells; format: cell-based, canine
[10] = target: Etx heptamer (oligomerization) (Clostridium perfringens, UniProt Q02307); format: cell-based
Chain of Etx heptamer (oligomerization) (Q02307 46-306 limits assumed): as above

Chain of Etx pore formation in DPPC/cholesterol liposomes (Q02307 46-306 limits assumed): as above
Chain of Etx monomer binding to MDCK cells (Q02307 46-306 limits assumed): as above

Compound: C[C@H](CCC(=O)O)C[C@H](C)C[C@H](C)C(=O)/C=C(\O)[C@H](C)C[C@H](C)C/C=C/[C@@H](C)[C@@H](O)[C@@H](C)[C@@H](O)C[C@@H]1CC[C@@](C)([C@H]2CC[C@@](C)([C@@H](C)O)O2)O1 [ionomycin, reference compound]
- Ca2+ influx, Fluo-4 AM intensity by FACS [1]: Clear intensity shift

Compound: O=C(O)CN(CCOCCOCCN(CC(=O)O)CC(=O)O)CC(=O)O [EGTA, reference compound]
- Ca2+ influx, Fluo-4 AM intensity by FACS [1]: blocked the Etx-invoked influx

Compound: c1ccc2nc3occc3cc2c1 [furo[2,3-b]quinoline]
- inhibition of Etx binding or oligomerization (Etx): none of them could inhibit

Compound: CCCCCCOC1O[C@H](CO)[C@@H](O)[C@H](O)[C@H]1O (stereo partly drawn) [Glycoside-6]
- protection of Etx-treated MDCK cells (Etx-treated MDCK cells [2]): concentration-dependent protection
- survival of Etx-challenged MDCK cells compared to Etx (Etx-treated MDCK cells [2]): greater than 50%

Compound: c1ccc2c(c1)Cc1cccc3noc-2c13 [6H-anthra[1,9-cd]isoxazol]
- inhibition of Etx binding or oligomerization (Etx): none of them could inhibit

Compound: CCCCOC1O[C@H](CO)[C@@H](O)[C@H](O)[C@H]1O (stereo partly drawn) [Glycoside-4]
- effect on binding of Etx monomer to the cell membrane [3]: no effect
- effect on pore formation in Etx-treated liposomes [4]: tearings disappeared
- mitochondrial membrane potential (ΨΔm), JC-1 [5]: could stabilize ΨΔm
- cell survival upon Etx challenge (MTT), pre- and post-treatment (Etx-treated MDCK cells [2]): increase in cell survival
- protection of Etx-treated MDCK cells (Etx-treated MDCK cells [2]): highest survival efficiency
- survival of Etx-challenged MDCK cells compared to Etx (Etx-treated MDCK cells [2]): greater than 50%
- Ca2+ entry, Fluo-4 AM fluorescence microscopy [1]: complete reduction in Ca^2+ entry
- Ca2+ influx, Fluo-4 AM intensity by FACS [1]: drastic reduction of Fluo-4 AM intensity
- mortality or clinical signs (seizures, convulsions and depression) (C57BL/6 mice): No mortality or clinical signs
- mice protected [6]: 60%
- mice with improved liver (H&E) [6]: 60%
- mice with protected brain structures (H&E) [6]: 60%
- death rate ([6]; ip, 50 mg/kg): 40%
- PI+ cells (Etx-treated MDCK cells [7]): drastic reduction in PI^+ cells
- annexin V+/PI+ cells (phosphatidylserine exposure) (Etx-treated MDCK cells [7]): absence of annexin V^+/PI^+ cells
- HMGB1 localization [8]: largely remained in the nucleus
- Etx (protein-protein) interaction in SPR (Etx-Etx monomers): no Etx (protein-protein) interaction could be seen
- ROS levels, DCFDA [9]: decreased levels of ROS
- effect on Etx heptamer (oligomer) intensity [10]: substantial decrease in heptamer intensity

Compound: CCCOC1O[C@H](CO)[C@@H](O)[C@H](O)[C@H]1O (stereo partly drawn) [Glycoside-2]
- protection of Etx-treated MDCK cells (Etx-treated MDCK cells [2]): concentration-dependent protection
- survival of Etx-challenged MDCK cells compared to Etx (Etx-treated MDCK cells [2]): greater than 50%
